# pIC50: −log10 of the molar value. The source made the active and inactive calls. No cut-off for these calls is given here.
# What was measured:
# [1] = tested on: COS; assay: (§1) Inhibition of recombinant ECE expressed in african green monkey COS cells assessed as endothelin formation by EIA assay; type: cell-based
# [2] = as §1; type: cell-based
SMILES,Activity [1],pIC50 [2]
O=C(NCCSSCCNC(=O)/C(Cc1ccc(Br)c(OS(=O)(=O)O)c1)=N/O)/C(Cc1ccc(OS(=O)(=O)O)c(Br)c1)=N/O,Active,
O=C(NCCSSCCNC(=O)/C(Cc1cccc(OS(=O)(=O)O)c1Br)=N/O)/C(Cc1cc(Br)c(O)c(-c2ccc(C/C(=N\O)C(=O)NCCSSCCNC(=O)/C(Cc3ccc(OS(=O)(=O)O)c(Br)c3)=N/O)c(Br)c2O)c1)=N/O,Active,
C[C@H](CC[C@H](C)C(C)(C)C)[C@H]1CC[C@H]2[C@@H]3C[C@H](OS(=O)(=O)O)[C@H]4C[C@H](OS(=O)(=O)O)[C@@H](OS(=O)(=O)O)C[C@]4(C)[C@H]3CC[C@]12C,Active,
C=CCCC[C@@H](C)[C@H]1CC[C@H]2[C@@H]3CC[C@H]4C[C@H](O)[C@@H](O)C[C@]4(C)[C@H]3CC[C@]12C,inactive,
C=CCCC[C@@H](C)[C@H]1CC[C@H]2[C@@H]3CC[C@H]4C[C@H](OS(=O)(=O)O)[C@@H](OS(=O)(=O)O)C[C@]4(C)[C@H]3CC[C@]12C [HALISTANOL DISULFATE B],,5.68
